Data published in ChEMBL document CHEMBL5050830, “Novel antibacterial compounds” (2013).
The source made the active and inactive calls. No cut-off for these calls is given here.

Tests used:
NAD kinase 1 = target: T1, NAD kinase 1 (Listeria monocytogenes serovar 1/2a (strain ATCC BAA-679 / EGD-e), UniProt Q8Y8D7); assay: Inhibition of His-tagged Listeria monocytogenes NADK1 in presence of glucose-6-phosphate dehydrogenase and NADP measured by spectrophotometry method
T1 sequence (Q8Y8D7 whole entry): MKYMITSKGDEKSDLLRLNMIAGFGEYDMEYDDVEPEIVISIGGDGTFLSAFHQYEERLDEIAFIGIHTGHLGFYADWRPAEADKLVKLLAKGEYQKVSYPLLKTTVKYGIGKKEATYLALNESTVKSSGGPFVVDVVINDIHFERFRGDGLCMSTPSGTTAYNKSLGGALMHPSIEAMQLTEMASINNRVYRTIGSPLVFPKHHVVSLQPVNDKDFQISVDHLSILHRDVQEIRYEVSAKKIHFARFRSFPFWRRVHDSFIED

[1] = Inhibition of His-tagged Staphylococcus aureus NADK in presence of glucose-6-phosphate dehydrogenase and NADP measured by spectrophotometry method
Staphylococcus aureus [2] = assay: Antibacterial activity against Staphylococcus aureus S25 strain at 1 ug/ml assessed as decrease in number of colony forming units relative to control; format: functional, organism-based; settings: dose 1.0 µg/ml
HeLa = assay: Cytotoxicity against human HeLa cells at 10 uM assessed as change in cell shape and multiplication after 96 hrs; format: toxicity, cell-based
Staphylococcus aureus [3] = assay: Antibacterial activity against Staphylococcus aureus S25 strain at 8 ug/ml assessed as decrease in number of colony forming units relative to control; format: functional, organism-based; settings: dose 8.0 µg/ml
Staphylococcus aureus [4] = assay: Antibacterial activity against Staphylococcus aureus S25 strain at 10 ug/ml assessed as decrease in number of colony forming units relative to control; format: functional, organism-based; settings: dose 10.0 µg/ml

Q: With `NC[C@H]1O[C@@H](n2c(Br)nc3c(N)ncnc32)[C@H](O)[C@@H]1O` as the compound, how does the IC50 (NAD kinase 1) read?
A: 300 µM

Q: Which results are given for `Nc1ncnc2c1ncn2[C@@H]1O[C@H](COCC#Cc2nc3c(N)ncnc3n2[C@@H]2O[C@H](CO)[C@@H](O)[C@H]2O)[C@@H](O)[C@H]1O`?
A: Ki (NAD kinase 1): 20 µM; Ki [1]: 15 µM; Activity (Staphylococcus aureus [2]): Active; Activity (HeLa): Non-Toxic

Q: Which results are given for `NC[C@H]1O[C@@H](n2c(SCC(=O)NC[C@H]3O[C@@H](n4cnc5c(N)ncnc54)[C@H](O)[C@@H]3O)nc3c(N)ncnc32)[C@H](O)[C@@H]1O`?
A: Ki (NAD kinase 1): 30 µM; Ki [1]: 50 µM; Activity (Staphylococcus aureus [2]): Active; Activity (HeLa): Non-Toxic

Q: For `CN[C@H](CC(C)C)C(=O)N[C@H]1C(=O)N[C@@H](CC(N)=O)C(=O)N[C@H]2C(=O)N[C@H]3C(=O)N[C@H](C(=O)N[C@H](C(=O)O)c4cc(O)cc(O)c4-c4cc3ccc4O)[C@H](O)c3ccc(c(Cl)c3)Oc3cc2cc(c3O[C@@H]2O[C@H](CO)[C@@H](O)[C@H](O)[C@H]2O[C@H]2C[C@](C)(N)[C@H](O)[C@H](C)O2)Oc2ccc(cc2Cl)[C@H]1O`, which Activity (Staphylococcus aureus [3]) is on record?
A: Active

Q: Which Activity (Staphylococcus aureus [4]) does the source give for `Nc1ncnc2c1ncn2[C@@H]1O[C@H](CNCC#Cc2nc3c(N)ncnc3n2[C@@H]2O[C@H](CO)[C@@H](O)[C@H]2O)[C@@H](O)[C@H]1O` here?
A: Active

Q: What about the Activity (HeLa) of the same compound?
A: Non-Toxic
